Laboratory results from patent publication US10555930B2, “Complex of a glucopyranosyl derivative and preparation method and use thereof” (SUNSHINE LAKE PHARMA CO., LTD., priority 2015, dated 2020).

Key:
human SGLT-2 = target: T1, human SGLT-2 (Homo sapiens, UniProt P31639); experiment: Inhibitory activity against SGLT-2, [14C]-AMG uptake in CHO cells; type: cell-based
T1 construct: expressed in transfected cells; host or cells: CHO cells (Flp-in CHO)
T1 sequence (P31639 1-672): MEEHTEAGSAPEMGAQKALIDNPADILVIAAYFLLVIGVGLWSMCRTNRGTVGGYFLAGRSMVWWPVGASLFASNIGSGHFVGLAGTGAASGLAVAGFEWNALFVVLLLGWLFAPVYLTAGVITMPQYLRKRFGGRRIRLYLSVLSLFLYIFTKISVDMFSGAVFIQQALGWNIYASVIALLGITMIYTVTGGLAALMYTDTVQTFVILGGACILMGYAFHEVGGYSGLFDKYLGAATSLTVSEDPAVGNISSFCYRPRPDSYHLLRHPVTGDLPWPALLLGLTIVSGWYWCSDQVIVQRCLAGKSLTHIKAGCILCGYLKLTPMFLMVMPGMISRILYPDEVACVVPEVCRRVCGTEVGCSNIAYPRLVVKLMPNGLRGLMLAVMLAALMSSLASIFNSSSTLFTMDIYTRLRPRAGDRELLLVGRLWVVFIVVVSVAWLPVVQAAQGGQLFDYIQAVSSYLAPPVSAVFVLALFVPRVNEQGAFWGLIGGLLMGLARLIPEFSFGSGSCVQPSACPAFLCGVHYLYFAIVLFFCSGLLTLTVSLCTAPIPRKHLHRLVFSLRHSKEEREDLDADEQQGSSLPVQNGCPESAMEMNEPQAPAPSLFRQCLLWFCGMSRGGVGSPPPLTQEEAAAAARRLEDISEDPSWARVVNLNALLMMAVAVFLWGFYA
Experimental: (§1) The following method was used for detecting inhibitory activity of the compounds of the invention against SGLT-1 and SGLT-2.
(§2) 3×10^4 of FIP-in CHO cells transfected Mock and CHO cells expressing human SGLT-1/SGLT-2 gene were seeded into a 96-well cell culture plate; the cells were incubated for 12 hours, and then to each well was added 150 μL of Na-free buffer to wash the cells once; and then to each well were added 50 μL of Na buffer containing the compound at different concentrations and 0.5 μM [^14C]-AMG, and the plate was incubated in a incubator at 37° C. for 1 hour, the reaction was terminated by adding 150 μL of pre-cooled Na-free buffer; the cells were further washed with Na-free buffer 3 times and the residual liquid was removed; to each well was added 20 μL of pre-cooled NaOH ([…]), the plate was vibrated at 900 rpm for 5 min; and then to each well was added 80 μL of scintillation solution, the plate was vibrated at 600 rpm for 5 min; the plate was analyzed on liquid scintillation counter.

human SGLT-1 = target: T2, human SGLT-1 (Homo sapiens, UniProt P13866); experiment: Inhibitory activity against SGLT-1, [14C]-AMG uptake in CHO cells; type: cell-based; settings: CHO cells expressing human SGLT-1, [14C]-AMG
T2 construct: expressed in transfected cells; host or cells: CHO cells (Flp-in CHO)
T2 sequence (P13866 1-664): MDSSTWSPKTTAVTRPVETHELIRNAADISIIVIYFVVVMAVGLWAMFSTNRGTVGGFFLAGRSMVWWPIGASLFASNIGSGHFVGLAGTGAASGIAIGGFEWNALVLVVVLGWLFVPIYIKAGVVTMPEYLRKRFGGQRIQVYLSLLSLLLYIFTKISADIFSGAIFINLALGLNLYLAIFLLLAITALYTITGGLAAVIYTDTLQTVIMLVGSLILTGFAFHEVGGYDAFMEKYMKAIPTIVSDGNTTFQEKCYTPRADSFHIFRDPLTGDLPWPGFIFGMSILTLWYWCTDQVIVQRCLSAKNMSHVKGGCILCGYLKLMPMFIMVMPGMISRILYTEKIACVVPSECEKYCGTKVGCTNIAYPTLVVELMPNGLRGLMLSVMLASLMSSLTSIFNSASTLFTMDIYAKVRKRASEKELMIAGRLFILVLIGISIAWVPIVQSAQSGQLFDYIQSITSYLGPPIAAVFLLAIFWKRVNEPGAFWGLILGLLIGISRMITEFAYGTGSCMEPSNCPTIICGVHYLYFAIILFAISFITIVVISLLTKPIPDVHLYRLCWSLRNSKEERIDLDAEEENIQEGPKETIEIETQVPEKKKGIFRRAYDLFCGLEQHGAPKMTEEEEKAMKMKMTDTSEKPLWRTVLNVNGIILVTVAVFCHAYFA
Experimental: as §1, §2

[1] = Measurement of solubility (Chinese Pharmacopoeia 2010 method); type: physicochemical
Description: Judgement standard of solubility are shown as table A.

[2] = solvent DMA, sampling weight 100.02, solvent volume 0.095 mL
[3] = solvent DMSO, sampling weight 100.16, solvent volume 0.095 mL
[4] = solvent acetonitrile, sampling weight 100.20, solvent volume 2.90 mL
[5] = solvent ethanol, sampling weight 100.10, solvent volume 2.90 mL
[6] = solvent methanol, sampling weight 100.23, solvent volume 0.095 mL

solubility (summary in words) ([1]; in acetonitrile, methanol, ethanol, DMSO and DMA): good solubility
yes/no dissolved [1, 2]: yes
yes/no dissolved [1, 3]: yes
yes/no dissolved [1, 4]: yes
yes/no dissolved [1, 5]: yes
yes/no dissolved [1, 6]: yes
yes/no dissolved ([1]; solvent water, sampling weight 10.33, solvent volume 102 mL): no
SMILES: CCOc1ccc(Cc2cc([C@]34OC[C@]([C@@H](C)O)(O3)[C@@H](O)[C@H](O)[C@H]4O)ccc2Cl)cc1 [Complex (IA), Complex (IA) of (1R,2S,3S,4R,5S)-5-(4-chloro-3-(4-ethoxybenzyl)phenyl)-1-((1R)-1-hydroxyethyl)-6,8-dioxabicyclo[3.2.1]octane-2,3,4-triol (I-n) and L-pyroglutamic acid]
SGLT-2 inhibitory activity (human SGLT-2; CHO cells expressing human SGLT-2, [14C]-AMG): has SGLT-2 and SGLT-1 inhibitory activity
inhibitory activity to SGLT-2 compared with SGLT-1 (human SGLT-2; SGLT-2 versus SGLT-1): the inhibitory activity to SGLT-2 is much more stronger than that to SGLT-1
SGLT-1 inhibitory activity (human SGLT-1): has SGLT-2 and SGLT-1 inhibitory activity
solubility results [1, 2]: Very soluble (1 g (mL) of solute can be dissolved completely in a <1 mL of solvent)
solubility results [1, 3]: Very soluble (1 g (mL) of solute can be dissolved completely in a <1 mL of solvent)
solubility results [1, 4]: Soluble (1 g (mL) of solute can be dissolved completely in a 10 to <30 mL of solvent)
solubility results [1, 5]: Soluble (1 g (mL) of solute can be dissolved completely in a 10 to <30 mL of solvent)
solubility results [1, 6]: Very soluble (1 g (mL) of solute can be dissolved completely in a <1 mL of solvent)
